Test results taken from patent US7807162B2, “Single domain VHH antibodies against von Willebrand factor” (Ablynx N.V., priority 2005, dated 2010).

System: platelet adhesion to endothelial cell-derived ULvWF
Experiment: Platelet string formation on ULvWF of histamine-stimulated endothelial cells (perfusion)
Type: cell-based, human
Conditions: 0.2, 2 and 10 μg/ml; platelets in buffer or TTP plasma; 2.5 dyn/cm2, 4 minutes
Experimental: Endothelial cells were obtained from human umbilical cord veins by the method of Maruyama (Z. Zellforsch. Mikrosk. A4nat. 60:69; 1963). Endothelial cells were activated with 100 μM histamine (Sigma-Aldrich, St Louis, Mo.) for 15 minutes at room temperature before the perfusion experiments.
Blood was drawn from healthy volunteers who denied ingestion of aspirin or other nonsteroidal anti-inflammatory drugs (NSAIDs) for the preceding 10 days into one-tenth volume 3.4% sodium citrate. Platelet-rich plasma (PRP) was prepared from whole blood by centrifugation (10 minutes at 200 g at room temperature). […] The platelet pellet was resuspended in HEPES (N-2-hydroxyethylpiperazine-N′-2-ethanesulfonic acid)-Tyrode buffer (10 mM HEPES, 137 mM NaCl, 2.68 mM KCl, 0.42 mM NaH2PO4, 1.7 mM MgCl2, 5 mM D-glucose, pH 6.5). Prostacyclin (PGI2, 10 ng/mL) was added to prevent platelet activation during the subsequent washing step. Platelets were spun down and resuspended in a small volume of HEPES-Tyrode buffer. This platelet suspension was diluted in HEPES buffer at pH 7.4, or in TTP plasma. […]
Endothelial cells were isolated from freshly obtained human umbilical cords by collagenase digestion of the interior of the umbilical vein. […] These ULvWF-adhered platelets appear as so-called ‘strings’, which are visible when the perfusion experiment is monitored by real-time video microscopy (FIG. 41). […]

ALX-0081: ALX-0081 (SEQ ID NO:98), Nanobody; humanised bivalent nanobody with the 3a linker
string formation of platelets on ULvWF: complete inhibition of string formation
